Experimental data: patent US20240239854A1, “ANTIMICROBIAL PEPTIDES AND MODIFICATIONS THEREOF” (Donald Danforth Plant Science Center, priority 2022, published 2024)
Values after ≈ are worked out from the molar mass of the structure shown. Read-outs that look alike come from different tables or passages of the source. Positions of bridges follow the written chain, without caps; N, C: chain ends. Non-standard residues stand in square brackets, D forms with d. Residues, ends and D or L forms follow the SMILES beside them. No end group written: not given here. Dab = NCC[C@H](N)C(=O)O

What was measured:
F. graminearum = conditions: for Antifungal activity relative to the wild-type GMA4C_AC control: in vitro, low cationic conditions, F. graminearum
F. oxysporum = experiment: Antifungal MIC assay in SFM culture media (Example 1); type: cell-based; conditions: for Antifungal activity relative to the wild-type GMA4C_AC control: in vitro, low cationic conditions, F. oxysporum
B. cinerea [1] = conditions: for Antifungal activity relative to the wild-type GMA4C_AC control: in vitro, low cationic conditions
P. capsici = experiment: Antifungal MIC assay in SFM culture media (Example 1); type: cell-based; conditions: in vitro, low cationic conditions
Alternaria alternata = experiment: 96-well plate antifungal MIC, resazurin cell viability (Example 4); type: cell-based; conditions: Table 19; unit not given, peptide concentrations in μM
Cercospora sojina = experiment: as above; type: cell-based; conditions: Table 19; unit not given, peptide concentrations in μM
[2] = test system: Colletotrichum gloeosporioides; experiment: as above; type: cell-based; conditions: Table 19; unit not given, peptide concentrations in μM
B. cinerea [3] = experiment: Semi-in planta drop inoculation assay on detached leaves of N. benthamiana, gray mold (Example 4); type: in vivo; conditions: for Reduction of gray mold disease symptoms (lesion sizes): peptide 1.5, 3 and 6 μM, 48 h after inoculation
Botrytis cinerea T-4 = conditions: for MIC (μM) SFM: Table 18, SFM; for MIC (μM) (SFM + 2 mM CaCl2): Table 18, SFM + 2 mM CaCl2; for MIC (μM) (SFM + 100 mM KCl): Table 18, SFM + 100 mM KCl; for MIC (μM) (SFM + 100 mM NaCl): Table 18, SFM + 100 mM NaCl
[4] = B. cinerea, 100 mM NaCl or 100 mM KCl

| Compound | In vitro antifungal activity (MIC) Alternaria alternata (Alternaria alternata) | In vitro antifungal activity (MIC) Cercospora sojina (Cercospora sojina) | In vitro antifungal activity (MIC) Colletotrichum gloeosporioides [2] | MIC (μM) SFM (Botrytis cinerea T-4) [µM] | MIC (μM) (SFM + 2 mM CaCl2) (Botrytis cinerea T-4) [µM] | MIC (μM) (SFM + 100 mM KCl) (Botrytis cinerea T-4) [µM] | MIC (μM) (SFM + 100 mM NaCl) (Botrytis cinerea T-4) [µM] | other results |
| --- | --- | --- | --- | --- | --- | --- | --- | --- |
| C[C@@H](O)[C@H](NC(=O)[C@H](CS)NC(=O)[C@H](Cc1ccccc1)NC(=O)[C@H](CS)NC(=O)[C@H](CCCNC(=N)N)NC(=O)[C@H](CCCNC(=N)N)NC(=O)[C@H](CCCNC(=N)N)NC(=O)[C@H](Cc1ccccc1)NC(=O)CNC(=O)[C@H](CCCNC(=N)N)NC(=O)[C@H](CS)NC(=O)[C@H](CCCNC(=N)N)NC(=O)CNC(=O)CN)C(=O)N[C@H](C(=O)N[C@@H](Cc1c[nH]cn1)C(=O)N[C@@H](CS)C(N)=O)[C@@H](C)O [GMA4C_AC] (H-GGRCRGFRRRCFCTTHC-NH2; N-terminus assumed) | – | – | – | – | – | – | – | F. graminearum MIC (F. graminearum): 3 µM; MIC (μM) Fusarium graminearum (F. graminearum): 3 µM (≈ 6.05 µg/mL); MIC Values (μM) against F. graminearum (F. graminearum): 6 µM (≈ 12.1 µg/mL); F. oxysporum MIC (F. oxysporum; Table 2, SFM culture media): 6 μuM; Retention of antifungal activity in presence of cations (B. cinerea [1]; [4]): retain their antifungal activity; SFM + 2 mM CaCl2 MIC (B. cinerea [1]; Table 4, B. cinerea): >6 (a few μM; SFM + 2 mM CaCl2 MIC (B. cinerea [1]; Table 10, values repeat Table 4 (B. cinerea)): >6 (a μM |
| N=C(N)NCCC[C@H](NC(=O)CNC(=O)[C@@H](N)Cc1ccccc1)C(=O)N[C@@H](CS)C(=O)N[C@@H](CCCNC(=N)N)C(=O)NCC(=O)N[C@@H](Cc1ccccc1)C(=O)N[C@@H](CCCNC(=N)N)C(=O)N[C@@H](CCCNC(=N)N)C(=O)N[C@@H](CCCNC(=N)N)C(=O)N[C@@H](CS)C(=O)N[C@@H](Cc1ccccc1)C(=O)N[C@@H](CS)C(=O)N[C@@H](Cc1c[nH]c2ccccc12)C(=O)N[C@@H](CCCNC(=N)N)C(=O)N[C@@H](Cc1c[nH]c2ccccc12)C(=O)N[C@@H](CS)C(N)=O [GMA4C_V4A] (H-FGRCRGFRRRCFCWRWC-NH2; N-terminus assumed) | – | – | – | – | – | – | – | Antifungal activity relative to the wild-type GMA4C_AC control (F. graminearum): equivalent; Antifungal activity relative to the wild-type GMA4C_AC control (F. oxysporum): equivalent; Potency relative to GMA4C_AC in presence of cations (B. cinerea [1]; [4]): 2 fold; Fungal growth inhibition at 6 μM (B. cinerea [1]; B. cinerea, in presence of 2 mM CaCl2, peptide 6 μM): inhibit fungal growth; Antifungal activity relative to the wild-type GMA4C_AC control (B. cinerea [1]; B. cinerea): equivalent; Antifungal activity relative to the wild-type GMA4C_AC control (P. capsici): equivalent |
| NCC[C@H](NC(=O)CNC(=O)[C@@H](N)Cc1ccccc1)C(=O)N[C@@H](CS)C(=O)N[C@@H](CCN)C(=O)NCC(=O)N[C@@H](Cc1ccccc1)C(=O)N[C@@H](CCN)C(=O)N[C@@H](CCN)C(=O)N[C@@H](CCN)C(=O)N[C@@H](CS)C(=O)N[C@@H](Cc1ccccc1)C(=O)N[C@@H](CS)C(=O)N[C@@H](Cc1c[nH]c2ccccc12)C(=O)N[C@@H](CCN)C(=O)N[C@@H](Cc1c[nH]c2ccccc12)C(=O)N[C@@H](CS)C(N)=O [GMA4C_V5A, FG(Dab)C(Dab)GF(Dab)(Dab)(Dab)CFCW(Dab)WC-NH2] (H-FG[Dab]C[Dab]GF[Dab][Dab][Dab]CFCW[Dab]WC-NH2; N-terminus assumed) | – | – | – | – | – | – | – | Antifungal activity relative to the wild-type GMA4C_AC control (F. graminearum): equivalent; Antifungal activity relative to the wild-type GMA4C_AC control (F. oxysporum): equivalent; Antifungal activity relative to the wild-type GMA4C_AC control (B. cinerea [1]; B. cinerea): equivalent; Antifungal activity relative to the wild-type GMA4C_AC control (P. capsici): equivalent |
| CC[C@H](C)[C@@H]1NC(=O)[C@H](CCCNC(=N)N)NC(=O)[C@H]([C@@H](C)O)NC(=O)[C@H](Cc2ccccc2)NC(=O)[C@H](Cc2c[nH]c3ccccc23)NC(=O)[C@H](Cc2ccccc2)NC(=O)[C@H](CCCNC(=N)N)NC(=O)[C@H](CCCNC(=N)N)NC(=O)[C@H](CC(C)C)NC(=O)[C@H](Cc2ccccc2)NC(=O)CNC(=O)[C@H](CCCCN)NC(=O)[C@@H](NC(=O)[C@H](CCCNC(=N)N)NC(=O)CNC(=O)CN)CSSC[C@@H](C(N)=O)NC1=O [GMA4C_V9] (H-GGRCKGFLRRFWFTRIC-NH2; disulfide 4-17; N-terminus assumed) | >12 | 6 | >12 | 3 (≈ 6.3 µg/mL) | 12 | 6 to 12 | 3 | Reduction of gray mold disease symptoms (lesion sizes) (B. cinerea [3]; detached N. benthamiana leaves): effective in reducing gray mold disease symptoms |
| CC[C@H](C)[C@@H]1NC(=O)[C@H](CCCNC(=N)N)NC(=O)[C@H]([C@@H](C)O)NC(=O)[C@H](Cc2c[nH]c3ccccc23)NC(=O)[C@H](Cc2ccc(O)cc2)NC(=O)[C@H](Cc2c[nH]c3ccccc23)NC(=O)[C@H](CCCNC(=N)N)NC(=O)[C@H](CCCNC(=N)N)NC(=O)[C@H](CCCNC(=N)N)NC(=O)[C@H](Cc2ccccc2)NC(=O)CNC(=O)[C@H](CCCCN)NC(=O)[C@@H](NC(=O)[C@H](CCCNC(=N)N)NC(=O)CNC(=O)CN)CSSC[C@@H](C(N)=O)NC1=O [GMA4C_V10] (H-GGRCKGFRRRWYWTRIC-NH2; disulfide 4-17; N-terminus assumed) | >12 | 6 | >12 | 3 (≈ 6.6 µg/mL) | 3 | 3 to 6 | 3 | Reduction of gray mold symptoms at low concentrations (B. cinerea [3]; detached N. benthamiana leaves, peptide 1.5 μM and 3 μM): more effective in reducing the symptoms of gray mold than GMA4C_V9; Reduction of gray mold disease symptoms (lesion sizes) (B. cinerea [3]; detached N. benthamiana leaves): effective in reducing gray mold disease symptoms |
| C[C@H](NC(=O)CN)C(=O)N[C@H]1CSSC[C@@H](C(N)=O)NC(=O)[C@H](CCCCN)NC(=O)[C@H](CCCCN)NC(=O)[C@H](Cc2ccc(O)cc2)NC(=O)[C@H](Cc2c[nH]c3ccccc23)NC(=O)[C@H](Cc2ccccc2)NC(=O)[C@H](Cc2c[nH]c3ccccc23)NC(=O)[C@H](C)NC(=O)[C@H](Cc2ccccc2)NC(=O)CNC(=O)[C@H](Cc2ccccc2)NC(=O)CNC(=O)[C@H](CCC(N)=O)NC(=O)[C@H](CCCNC(=N)N)NC(=O)[C@H](Cc2c[nH]cn2)NC1=O [GMA5CA_V3] (H-GACHRQGFGFAWFWYKKC-NH2; disulfide 3-18; N-terminus assumed) | 3 | 6 | >12 | 3 (≈ 6.57 µg/mL) | >12 | >12 | >12 | – |
| C[C@H](NC(=O)CN)C(=O)N[C@H]1CSSC[C@@H](C(N)=O)NC(=O)[C@H](CCCCN)NC(=O)[C@H](CCCCN)NC(=O)[C@H](Cc2ccc(O)cc2)NC(=O)[C@H](Cc2ccccc2)NC(=O)[C@H](Cc2ccccc2)NC(=O)[C@H](Cc2ccccc2)NC(=O)[C@H](C)NC(=O)[C@H](Cc2ccccc2)NC(=O)CNC(=O)[C@H](Cc2ccccc2)NC(=O)CNC(=O)[C@H](CCC(N)=O)NC(=O)[C@H](CCCNC(=N)N)NC(=O)[C@H](Cc2c[nH]cn2)NC1=O [GMA5CA_V4] (H-GACHRQGFGFAFFFYKKC-NH2; disulfide 3-18; N-terminus assumed) | 3 | 6 | >12 | 3 (≈ 6.33 µg/mL) | >12 | >12 | >12 | – |
| C[C@H](NC(=O)CN)C(=O)N[C@@H](CS)C(=O)N[C@@H](Cc1c[nH]cn1)C(=O)N[C@@H](CCCNC(=N)N)C(=O)N[C@@H](CCC(N)=O)C(=O)NCC(=O)N[C@@H](Cc1ccccc1)C(=O)NCC(=O)N[C@@H](Cc1ccccc1)C(=O)N[C@@H](C)C(=O)N[C@@H](CS)C(=O)N[C@@H](Cc1ccccc1)C(=O)N[C@@H](CS)C(=O)N[C@@H](Cc1ccc(O)cc1)C(=O)N[C@@H](CCCCN)C(=O)N[C@@H](CCCCN)C(=O)N[C@@H](CS)C(N)=O [GMA5CA_WT] (H-GACHRQGFGFACFCYKKC-NH2) | 6 | 12 | >12 | – | – | – | – | – |
| CC(C)C[C@@H]1NC(=O)[C@@H](NC(=O)[C@H](C)NC(=O)CN)CSSC[C@@H](C(=O)N[C@@H](Cc2ccc(O)cc2)C(N)=O)NC(=O)[C@H](Cc2c[nH]cn2)NC(=O)[C@H](CCCNC(=N)N)NC(=O)[C@H](Cc2ccc(O)cc2)NC(=O)[C@H](Cc2ccc(O)cc2)NC(=O)[C@H](Cc2c[nH]c3ccccc23)NC(=O)[C@H](Cc2ccccc2)NC(=O)[C@H](Cc2c[nH]c3ccccc23)NC(=O)CNC(=O)[C@H](Cc2ccc(O)cc2)NC(=O)[C@H](Cc2c[nH]cn2)NC(=O)[C@H](CCCCN)NC(=O)[C@H](CO)NC(=O)[C@H](Cc2c[nH]cn2)NC(=O)[C@H](CCCNC(=N)N)NC(=O)[C@H](CC(N)=O)NC(=O)[C@H](CCCCN)NC1=O [GMAOe1C_V3] (H-GACLKNRHSKHYGWFWYYRHCY-NH2; disulfide 3-21; N-terminus assumed) | – | – | – | 1.5 (≈ 4.31 µg/mL) | 3 to 6 | 6 to 12 | 2 to 3 | Reduction of gray mold symptoms at 1.5 μM (B. cinerea [3]; drop inoculation assay, peptide 1.5 μM): more effective than GMAOe1C_V4 or GMAOe1C_WT |
| GRCRGFRRRCFCTTHC-NH2 (cysteine pairing not given here) [GMA4AC] | >12 | >12 | >12 | – | – | – | – | – |
